Experimental data reported in ChEMBL document CHEMBL1145390, “Synthesis and preliminary biological characterization of new semisynthetic derivatives of ramoplanin” (J Med Chem, 2007).
Converted amounts (≈) assume the structure as drawn. The source made the active and inactive calls. The rule behind the calls is not given here.

How the values were obtained:
Enterococcus faecalis [1] = experiment: Antibacterial activity against Enterococcus faecalis after 24 hrs by broth microdilution method; type: functional; settings: read-out: MIC
Staphylococcus aureus [2] = experiment: Antibacterial activity against Staphylococcus aureus Smith after 24 hrs by broth microdilution method; type: functional; settings: read-out: MIC
Staphylococcus aureus [3] = experiment: Antibacterial activity against methicillin-resistant Staphylococcus aureus clinical isolate after 24 hrs by broth microdilution method; type: functional; settings: read-out: MIC
Staphylococcus aureus [4] = experiment: Antibacterial activity against methicillin-resistant and vancomycin-intermediate resistant Staphylococcus aureus clinical isolate after 24 hrs by broth microdilution method; type: functional; settings: read-out: MIC
Staphylococcus aureus [5] = experiment: Antibacterial activity against vancomycin-intermediate resistant Staphylococcus aureus clinical isolate after 24 hrs by broth microdilution method; type: functional
Streptococcus pyogenes = experiment: Antibacterial activity against Streptococcus pyogenes C203 after 24 hrs by broth microdilution method; type: functional; settings: C203, 24 h, read-out: MIC
Enterococcus faecium [6] = experiment: Antibacterial activity against Enterococcus faecium after 24 hrs by broth microdilution method; type: functional; settings: for MIC: read-out: MIC
Enterococcus faecium [7] = experiment: Antibacterial activity against vancomycin A-resistant Enterococcus faecium clinical isolate after 24 hrs by broth microdilution method; type: functional; settings: read-out: MIC
Escherichia coli = experiment: Antibacterial activity against Escherichia coli SKF-12140 after 24 hrs by broth microdilution method; type: functional; settings: read-out: MIC
Candida albicans = experiment: Antifungal activity against Candida albicans SKF-2270 after 24 hrs by broth microdilution method; type: functional; settings: read-out: MIC
[8] = Toxicity assessed as hemolysis in erythrocytes at 1200 mg/L; type: cell-based, Erythrocyte; settings: human, read-out: Activity
Staphylococcus aureus [9] = experiment: Antibacterial activity against vancomycin-intermediate resistant Staphylococcus aureus clinical isolate in presence of 30% bovine serum after 24 hrs by broth microdilution method; type: functional
Staphylococcus aureus [10] = experiment: Antibacterial activity against Staphylococcus aureus Smith in presence of 30% bovine serum after 24 hrs by broth microdilution method; type: functional
Enterococcus faecalis [11] = experiment: Antibacterial activity against vancomycin-resistant Enterococcus faecalis in presence of 30% bovine serum after 24 hrs by broth microdilution method; type: functional
Enterococcus faecium [12] = experiment: Antibacterial activity against vancomycin A-resistant Enterococcus faecium clinical isolate in presence of 30% bovine serum after 24 hrs by broth microdilution method; type: functional
[13] = Toxicity assessed as hemolysis in erythrocytes at 600 mg/L; type: cell-based, Erythrocyte; settings: human, read-out: Activity
[14] = Toxicity assessed as hemolysis in erythrocytes at 300 mg/L; type: cell-based, Erythrocyte; settings: human, read-out: Activity
Enterococcus faecalis [15] = experiment: Antibacterial activity against vancomycin A-resistant Enterococcus faecalis after 24 hrs by broth microdilution method; type: functional; settings: read-out: MIC
[16] = Toxicity assessed as hemolysis in erythrocytes at 180 mg/L; type: cell-based, Erythrocyte; settings: human, erythrocytes; read-out: Activity
[17] = Toxicity assessed as hemolysis in erythrocytes at 90 mg/L; type: cell-based, Erythrocyte; settings: human, erythrocytes; read-out: Activity
[18] = Toxicity assessed as hemolysis in erythrocytes at 800 mg/L; type: cell-based, Erythrocyte; settings: human, read-out: Activity
[19] = Toxicity assessed as hemolysis in erythrocytes at 400 mg/L; type: cell-based, Erythrocyte; settings: human, read-out: Activity
[20] = Toxicity assessed as hemolysis in erythrocytes at 200 mg/L; type: cell-based, Erythrocyte; settings: human, read-out: Activity

Compound | MIC (Enterococcus faecalis [1]) | MIC (Staphylococcus aureus [2]) | MIC (Staphylococcus aureus [3]) | MIC (Staphylococcus aureus [4]) | MIC (Staphylococcus aureus [5]) | MIC (Streptococcus pyogenes) | MIC (Enterococcus faecium [6]) | MIC (Enterococcus faecium [7]) | MIC (Escherichia coli) | MIC (Candida albicans) | hemolysis at 1200 mg/L [8] | MIC (Staphylococcus aureus [9]) | MIC (Staphylococcus aureus [10]) | MIC (Enterococcus faecalis [11]) | MIC (Enterococcus faecium [12]) | hemolysis at 600 mg/L [13] | hemolysis at 300 mg/L [14] | MIC (Enterococcus faecalis [15]) | also measured
Cc1cccc(C)c1CC(=O)N[C@@H](CC(N)=O)C(=O)NC[C@@H]1C(=O)N[C@H](c2ccc(O)cc2)C(=O)N[C@H](CCCN)C(=O)N[C@H](C(C)C)C(=O)N[C@@H](c2ccc(O)cc2)C(=O)N[C@H](c2ccc(O)cc2)C(=O)N[C@@H]([C@@H](C)O)C(=O)N[C@@H](Cc2ccccc2)C(=O)N[C@H](CCCN)C(=O)N[C@@H](c2ccc(O[C@H]3O[C@H](CO)[C@@H](O)[C@H](O)[C@@H]3O[C@H]3O[C@H](CO)[C@@H](O)[C@H](O)[C@@H]3O)cc2)C(=O)N[C@H]([C@@H](C)O)C(=O)N[C@@H](c2ccc(O)cc2)C(=O)NCC(=O)N[C@@H](CC(C)C)C(=O)N[C@H](C)C(=O)N[C@@H](c2ccc(O)c(Cl)c2)C(=O)O[C@@H]1C(N)=O | ≤ 0.125 µg/mL | ≤ 0.125 µg/mL | ≤ 0.125 µg/mL | 1 µg/mL (≈ 0.388 µM) | 0.25 µg/mL (≈ 0.097 µM) | ≤ 0.125 µg/mL | 0.5 µg/mL (≈ 0.194 µM) | 0.25 µg/mL (≈ 0.097 µM) | > 128 µg/mL | > 128 µg/mL | 43% | 2 µg/mL | 0.5 µg/mL | 1 µg/mL | 4 µg/mL | 13% | 0% | – | –
Cc1ccc(CC(=O)N[C@@H](CC(N)=O)C(=O)NC[C@@H]2C(=O)N[C@H](c3ccc(O)cc3)C(=O)N[C@H](CCCN)C(=O)N[C@H](C(C)C)C(=O)N[C@@H](c3ccc(O)cc3)C(=O)N[C@H](c3ccc(O)cc3)C(=O)N[C@@H]([C@@H](C)O)C(=O)N[C@@H](Cc3ccccc3)C(=O)N[C@H](CCCN)C(=O)N[C@@H](c3ccc(O[C@H]4O[C@H](CO)[C@@H](O)[C@H](O)[C@@H]4O[C@H]4O[C@H](CO)[C@@H](O)[C@H](O)[C@@H]4O)cc3)C(=O)N[C@H]([C@@H](C)O)C(=O)N[C@@H](c3ccc(O)cc3)C(=O)NCC(=O)N[C@@H](CC(C)C)C(=O)N[C@H](C)C(=O)N[C@@H](c3ccc(O)c(Cl)c3)C(=O)O[C@@H]2C(N)=O)cc1.Cl | 0.25 µg/mL | ≤ 0.125 µg/mL | ≤ 0.125 µg/mL | 4 µg/mL | 2 µg/mL | ≤ 0.125 µg/mL | 0.5 µg/mL | 0.5 µg/mL | > 128 µg/mL | > 128 µg/mL | 9% | 4 µg/mL | 0.5 µg/mL | 2 µg/mL | 2 µg/mL | 11% | 2% | ≤ 0.125 µg/mL | hemolysis at 180 mg/L [16]: 0%; hemolysis at 90 mg/L [17]: 0%
CC(C)C[C@@H]1NC(=O)CNC(=O)[C@H](c2ccc(O)cc2)NC(=O)[C@@H]([C@@H](C)O)NC(=O)[C@H](c2ccc(O[C@H]3O[C@H](CO)[C@@H](O)[C@H](O)[C@@H]3O[C@H]3O[C@H](CO)[C@@H](O)[C@H](O)[C@@H]3O)cc2)NC(=O)[C@@H](CCCN)NC(=O)[C@H](Cc2ccccc2)NC(=O)[C@H]([C@@H](C)O)NC(=O)[C@@H](c2ccc(O)cc2)NC(=O)[C@H](c2ccc(O)cc2)NC(=O)[C@@H](C(C)C)NC(=O)[C@@H](CCCN)NC(=O)[C@@H](c2ccc(O)cc2)NC(=O)[C@@H](CNC(=O)[C@H](CC(N)=O)NC(=O)Cc2ccccc2[N+](=O)[O-])[C@@H](C(N)=O)OC(=O)[C@H](c2ccc(O)c(Cl)c2)NC(=O)[C@@H](C)NC1=O | 2 µg/mL (≈ 0.771 µM) | 0.5 µg/mL (≈ 0.193 µM) | 1 µg/mL (≈ 0.386 µM) | 4 µg/mL (≈ 1.54 µM) | 2 µg/mL (≈ 0.771 µM) | ≤ 0.125 µg/mL | 4 µg/mL (≈ 1.54 µM) | 2 µg/mL (≈ 0.771 µM) | > 128 µg/mL | > 128 µg/mL | 0% | 4 µg/mL | 1 µg/mL | 2 µg/mL | 8 µg/mL | 0% | 1% | 1 µg/mL (≈ 0.386 µM) | –
CC(C)C[C@@H]1NC(=O)CNC(=O)[C@H](c2ccc(O)cc2)NC(=O)[C@@H]([C@@H](C)O)NC(=O)[C@H](c2ccc(O[C@H]3O[C@H](CO)[C@@H](O)[C@H](O)[C@@H]3O[C@H]3O[C@H](CO)[C@@H](O)[C@H](O)[C@@H]3O)cc2)NC(=O)[C@@H](CCCN)NC(=O)[C@H](Cc2ccccc2)NC(=O)[C@H]([C@@H](C)O)NC(=O)[C@@H](c2ccc(O)cc2)NC(=O)[C@H](c2ccc(O)cc2)NC(=O)[C@@H](C(C)C)NC(=O)[C@@H](CCCN)NC(=O)[C@@H](c2ccc(O)cc2)NC(=O)[C@@H](CNC(=O)[C@H](CC(N)=O)NC(=O)Cc2cccc3ccccc23)[C@@H](C(N)=O)OC(=O)[C@H](c2ccc(O)c(Cl)c2)NC(=O)[C@@H](C)NC1=O.Cl | ≤ 0.06 µg/mL | ≤ 0.06 µg/mL | ≤ 0.06 µg/mL | 2 µg/mL | 0.25 µg/mL | ≤ 0.06 µg/mL | 0.125 µg/mL | ≤ 0.06 µg/mL | > 128 µg/mL | > 128 µg/mL | – | 1 µg/mL | 0.25 µg/mL | 0.25 µg/mL | 0.5 µg/mL | – | – | ≤ 0.06 µg/mL | hemolysis at 180 mg/L [16]: 28%; hemolysis at 90 mg/L [17]: 15%; hemolysis at 800 mg/L [18]: 98%; hemolysis at 400 mg/L [19]: 60%; hemolysis at 200 mg/L [20]: 30%
Cc1ccccc1C(C)C(=O)N[C@@H](CC(N)=O)C(=O)NC[C@@H]1C(=O)N[C@H](c2ccc(O)cc2)C(=O)N[C@H](CCCN)C(=O)N[C@H](C(C)C)C(=O)N[C@@H](c2ccc(O)cc2)C(=O)N[C@H](c2ccc(O)cc2)C(=O)N[C@@H]([C@@H](C)O)C(=O)N[C@@H](Cc2ccccc2)C(=O)N[C@H](CCCN)C(=O)N[C@@H](c2ccc(O[C@H]3O[C@H](CO)[C@@H](O)[C@H](O)[C@@H]3O[C@H]3O[C@H](CO)[C@@H](O)[C@H](O)[C@@H]3O)cc2)C(=O)N[C@H]([C@@H](C)O)C(=O)N[C@@H](c2ccc(O)cc2)C(=O)NCC(=O)N[C@@H](CC(C)C)C(=O)N[C@H](C)C(=O)N[C@@H](c2ccc(O)c(Cl)c2)C(=O)O[C@@H]1C(N)=O (stereo partly drawn) | 0.5 µg/mL (≈ 0.194 µM) | 0.25 µg/mL (≈ 0.097 µM) | 0.5 µg/mL (≈ 0.194 µM) | 4 µg/mL (≈ 1.55 µM) | 2 µg/mL (≈ 0.776 µM) | ≤ 0.125 µg/mL | – | 1 µg/mL (≈ 0.388 µM) | > 128 µg/mL | > 128 µg/mL | 45% | 4 µg/mL | 1 µg/mL | 2 µg/mL | 8 µg/mL | 4% | 2% | 1 µg/mL (≈ 0.388 µM) | Activity (Enterococcus faecium [6]): inactive
CC(C)C[C@@H]1NC(=O)CNC(=O)[C@H](c2ccc(O)cc2)NC(=O)[C@@H]([C@@H](C)O)NC(=O)[C@H](c2ccc(O[C@H]3O[C@H](CO)[C@@H](O)[C@H](O)[C@@H]3O[C@H]3O[C@H](CO)[C@@H](O)[C@H](O)[C@@H]3O)cc2)NC(=O)[C@@H](CCCN)NC(=O)[C@H](Cc2ccccc2)NC(=O)[C@H]([C@@H](C)O)NC(=O)[C@@H](c2ccc(O)cc2)NC(=O)[C@H](c2ccc(O)cc2)NC(=O)[C@@H](C(C)C)NC(=O)[C@@H](CCCN)NC(=O)[C@@H](c2ccc(O)cc2)NC(=O)[C@@H](CNC(=O)[C@H](CC(N)=O)NC(=O)Cc2ccccc2C(F)(F)F)[C@@H](C(N)=O)OC(=O)[C@H](c2ccc(O)c(Cl)c2)NC(=O)[C@@H](C)NC1=O | ≤ 0.125 µg/mL | ≤ 0.125 µg/mL | ≤ 0.125 µg/mL | 2 µg/mL (≈ 0.764 µM) | 1 µg/mL (≈ 0.382 µM) | ≤ 0.125 µg/mL | 0.5 µg/mL (≈ 0.191 µM) | 0.25 µg/mL (≈ 0.0956 µM) | > 128 µg/mL | > 128 µg/mL | 51% | 4 µg/mL | 1 µg/mL | 0.5 µg/mL | 2 µg/mL | 5% | 3% | – | –
Cc1cccc(CC(=O)N[C@@H](CC(N)=O)C(=O)NC[C@@H]2C(=O)N[C@H](c3ccc(O)cc3)C(=O)N[C@H](CCCN)C(=O)N[C@H](C(C)C)C(=O)N[C@@H](c3ccc(O)cc3)C(=O)N[C@H](c3ccc(O)cc3)C(=O)N[C@@H]([C@@H](C)O)C(=O)N[C@@H](Cc3ccccc3)C(=O)N[C@H](CCCN)C(=O)N[C@@H](c3ccc(O[C@H]4O[C@H](CO)[C@@H](O)[C@H](O)[C@@H]4O[C@H]4O[C@H](CO)[C@@H](O)[C@H](O)[C@@H]4O)cc3)C(=O)N[C@H]([C@@H](C)O)C(=O)N[C@@H](c3ccc(O)cc3)C(=O)NCC(=O)N[C@@H](CC(C)C)C(=O)N[C@H](C)C(=O)N[C@@H](c3ccc(O)c(Cl)c3)C(=O)O[C@@H]2C(N)=O)c1 | 0.25 µg/mL (≈ 0.0976 µM) | ≤ 0.125 µg/mL | 0.25 µg/mL (≈ 0.0976 µM) | 2 µg/mL (≈ 0.781 µM) | 1 µg/mL (≈ 0.39 µM) | ≤ 0.125 µg/mL | 0.5 µg/mL (≈ 0.195 µM) | 0.5 µg/mL (≈ 0.195 µM) | > 128 µg/mL | > 128 µg/mL | 5% | 4 µg/mL | 1 µg/mL | 1 µg/mL | 4 µg/mL | 0% | 0% | ≤ 0.125 µg/mL | –
